Results: patent publication US20240238445A1, “INHIBITORS AND USES THEREOF” (NEURACLE SCIENCE CO., LTD., priority 2021, published 2024)
Square brackets hold non-standard residues; d marks the D form. Ends that are not written are not given here.

Key:
[1] = target: hFc-fused hLRRC4B and FAM19A5 complex formation (Homo sapiens, UniProt Q7Z5A7); assay: Competitive inhibition assay (IC50), plate coated with LRRC4B(453-576, TT/TT)-hFc; type: binding
Experimental: The in silico analysis provided in Example 9 highlighted that certain T12 and L13 double mutants might be important in improving the binding affinity of the polypeptides of the present disclosure to the FAM19A5 protein. Therefore, the ability of both the wild-type FB-21 peptide (which is the same as the FB-20 peptide described herein except that the FB-21 peptide additionally contains an alanine at the C-terminus) and several FB-21 mutants were tested for their inhibitor effect on hFc-fused hLRRC4B and FAM19A5 complex formation. Briefly, plate was coated with 100 nM of LRRC4B(453-576, TT/TT)-hFc and then 1 ng/ml of rFAM19A5 was incubated at 37° C. in the presence of increasing concentrations of the different FB-21 peptide fragments (0.03, 0.1, 0.3, 1, 3, 10, 30, 100, 300 and 1000 nM). The LRRC4B-bound FAM19A5 levels were measured using HRP-conjugated 1-65 antibody.

[2] = target: interaction between His-TEV LRRC4B and rFAM19A5 (Homo sapiens, UniProt Q7Z5A7); assay: Competitive inhibition assay (IC50), plate coated with His-TEV LRRC4B; type: binding
Experimental: To further assess the inhibitory effect of the FB-21 mutants, the ability of additional FB-21 mutants described in Example 9 were tested for their ability to inhibit the interaction between FAM19A5 protein and LRRC4B protein. Briefly, plates were coated with 100 nM of His-TEV LRRC4B and then 1 ng/mL of rFAM19A5 was incubated at 37° C. in the presence of increasing concentrations of the FB-21 peptide fragments (0.3, 1, 3, 10, 30, 100, 300, 1000, 3000 and 10000 nM). The LRRC4B-bound FAM19A5 levels were measured using HRP-conjugated 1-65 SS01 antibody. As shown in FIG. 22B (see Table 15 for IC50), most (if not all) of the FB-21 mutants had improved ability in inhibiting the interaction between LRRC4B and recombinant FAM19A5 protein.
Next, to assess whether other properties of the polypeptides described herein can be improved (e.g., solubility, prevention of degradation from protease and peptidase, and in vivo administration), the following additional FB-21 peptide mutants were constructed and tested for their ability to inhibit the interaction between FAM19A5 protein and LRRC4B: (1) d-form FB-21 peptide (“dFB-21”), (2) d-form FB-21 peptide with juxta-membrane (JM) sequence (“dFB-JM-31”), (3) d-form FB-21 peptide with BBB penetrating sequence at each end of the sequence (“dFB-BBB-39”), and (4) d-form FB-21 mutant peptide with DY replacement and additional JM sequence (“dFB-DY-JM31”). The sequence for d-form FB-21 peptide is set forth in SEQ ID NO: 153 (nYTYFTTVTVETLETQPGEEa; wherein the lowercase amino acids represent D-form of the amino acid, and the uppercase amino acids represent L-form of the amino acid). The sequence for dFB-BBB-39 is set forth in SEQ ID NO: 154 (n[…]l; wherein the lowercase amino acids represent D-form of the amino acid, and the uppercase amino acids represent L-form of the amino acid). The sequence for dFB-JM-31 is set forth in SEQ ID NO: 155 (n[…]a; wherein the lowercase amino acids represent D-form of the amino acid, and the uppercase amino acids represent L-form of the amino acid). The sequence for dFB-DY-JM31 is set forth in SEQ ID NO: 156 (n[…]a; wherein the lowercase amino acids represent D-form of the amino acid, and the uppercase amino acids represent L-form of the amino acid). The overall experimental methods were the same as those described immediately above.

[3] = tested on: mouse primary cortical neurons; assay: Neurite growth of mouse primary cortical neurons in vitro; type: cell-based; conditions: treated days 1 and 2, assessed day 3, anti-beta-tubulin III; LRRC4B fragment 0.006 to 60 nM; versus control
Experimental: Next, primary cortical neurons (day 1 postnatal) were cultured in vitro with varying concentrations (0.006 to 60 nM) of the LRRC4B (453-576) protein fragment (i.e., amino acid residues 453-576 of SEQ ID NO: 2; SEQ ID NO: 7), and then at day 3 post-initial culture, the effect on neurite growth was assessed by immunostaining the cells with anti-beta-tubulin III antibody. Cells cultured with DMSO (“Veh”) were used as control.
Mouse hippocampal neurons were treated with LRRC4B peptides at 1 and 2 DIV to determine neurite growth. It was measured by using 3 different parameters, which are total neurites length, number of primary and secondary neurites. After the neurons were stained with beta-tubulin III at 3 DIV, neurites length and branch points were measured using Fiji (Image J, NIH, Bethesda). Individual neurons were selected by hand and these parameters were counted using the Simple neurite tracer plugin. Mouse spinal motor neurons sampled at postnatal day 1 were treated with 10 nM of NS101 and LRRC4B-peptides (dFB-dWY-JM31 and dFB-DY-JM31) at 1 and 2 DIV and immunostained with Tau-5 antibody at 3 DIV. Total neurite length and number of somas in images were measured by Neurphology Image J plugin.

FAM19A5 protein [4] = target: T1, FAM19A5 protein (Homo sapiens, UniProt Q7Z5A7); assay: ELISA binding of recombinant FAM19A5 to coated hFc-conjugated LRRC4 family ectodomains, fragments or synthetic peptides; conditions: for binding to FAM19A5 protein (ELISA, in words): coated 100 nM/well, FAM19A5 up to 10 nM
Experimental: Next, to confirm the above co-immunoprecipitation results, an ELISA assay was used to measure the binding of the FAM19A5 protein to either the full-length ectodomain of members of LRRC4 protein family or various LRRC4B ectodomain protein fragments. Specifically, an ELISA plate was coated with one of the following LRRC4B ectodomain protein, which was conjugated to human Fc (100 nM/well): (1) full-length ectodomain of LRRC4 protein (amino acid residues 39-527 of SEQ ID NO: 1) (SEQ ID NO: 4); (2) full-length ectodomain of LRRC4B protein (amino acids 36-576 of SEQ ID NO: 2; i.e., construct #7 in Table 6) (SEQ ID NO: 5); (3) full-length ectodomain of LRRC4C protein (amino acids 45-527 of SEQ ID NO: 3) (SEQ ID NO: 6); (4) LRRC4B ectodomain fragment (amino acids 453-576 of SEQ ID NO: 2; i.e., construct #11 in Table 6) (SEQ ID NO: 7); (5) LRRC4B ectodomain fragment (amino acids 484-576 of SEQ ID NO: 2; i.e., construct #12 in Table 6) (SEQ ID NO: 8); (6) LRRC4B ectodomain fragment (amino acids 482-576 of SEQ ID NO: 2) (SEQ ID NO: 9); (7) LRRC4B ectodomain fragment (amino acids 482-497 of SEQ ID NO: 2) (SEQ ID NO: 10); and (8) LRRC4B ectodomain fragment (amino acids 498-576 of SEQ ID NO: 2; i.e., construct #13 in Table 6) (SEQ ID NO: 11). Then, recombinant FAM19A5 proteins (0.005, 0.01, 0.025, 0.05, 0.1, 0.25, 0.5, 1, 2.5, 5, and 10 nM) were added to the relevant wells, and the plates were incubated at 37° C. for 1 hour. Afterwards, the amount of LRRC4B-bound FAM19A5 protein was detected using HRP-conjugated anti-FAM19A5 (1-65) antibody.
As further confirmation, three synthetic polypeptides comprising amino acids 484-497 of SEQ ID NO: 2 (i.e., YTYFTTVTVETLET; SEQ ID NO: 65) were constructed: (1) FB-16 (GYTYFTTVTVETLETQ; SEQ ID NO: 17), (2) FB-20 ([…]; SEQ ID NO: 18), and (3) FB-28 ([…]; SEQ ID NO: 19). The peptides differed in their total length. The ability of these polypeptides to bind to recombinant FAM19A5 protein was assessed using an ELISA assay as described above.

FAM19A5 protein [5] = target: T1, FAM19A5 protein; assay: Co-immunoprecipitation of FLAG-tagged LRRC4 family deletion constructs/fragments with recombinant FAM19A5 in HEK293 cells; type: binding; conditions: HEK293 cells expressing FLAG-tagged construct, recombinant FAM19A5 1 μM 30 minutes; IP anti-FLAG, blot anti-FAM19A5 (3-2)
Experimental: To understand the interaction between FAM19A5 and members of the LRRC4 protein family, HEK293 cells were modified to express a FLAG-tagged member of the LRRC4 protein family, i.e., LRRC4C protein, LRRC4 protein, or LRRC4B protein. Then, the HEK293 cells or primary cortical neurons were treated with recombinant FAM19A5 protein (1 μM) for 30 minutes, and the binding between FAM19A5 protein and the different members of the LRRC4 protein family was assessed using both co-immunoprecipitation and immunofluorescence assays.
For the co-immunoprecipitation assay, cell lysates from the different FAM19A5-treated HEK293 cells were collected and immunoprecipitated with an anti-FLAG antibody, anti-FAM19A5 (1-65) antibody, or a human IgG antibody (control). Immunoprecipitated proteins were immunoblotted with anti-FLAG and anti-FAM19A5 (3-2) antibodies. For the immunofluorescence assay, the HEK293 cells treated with the recombinant FAM19A5 protein were immunostained with anti-FAM19A5 (3-2) (to detect FAM19A5 protein expression) and anti-FLAG antibodies (to detect member of the LRRC4 protein family). The primary cortical neurons treated with the recombinant FAM19A5 protein were immunostained with anti-FAM19A5 (3-2) and anti-LRRC4B antibodies. The nuclei were stained with Hoechst33342 (blue).
To determine the specific motif or domain of the LRRC4B protein that is responsible for the binding to a FAM19A5 protein, various FLAG-tagged LRRC4B deletion constructs were generated (see Table 6 below). HEK293 cells were transfected with the different deletion constructs and then treated with recombinant FAM19A5 protein as described in Example 1. Then, the cell lysates from the different HEK293 cells were immunoprecipitated with the anti-FLAG antibody. The immunoprecipitated proteins were immunoblotted with anti-FLAG and anti-FAM19A5 (3-2) antibodies.
As described in Example 2, all members of the LRRC4 protein family were capable of binding to FAM19A5 protein to varying degrees. Therefore, to compare the bindings domains, the amino acid sequences of the LRRC4B, LRRC4, and LRRC4C proteins were aligned. […] Therefore, to assess whether the corresponding positions of LRRC4 and LRRC4C were important in the binding of these proteins to FAM19A5 protein, cDNAs encoding either (i) LRRC4C protein fragment (amino acids 354-527 of SEQ ID NO: 3; SEQ ID NO: 66) or (ii) LRRC4 protein fragment (amino acids 353-527 of SEQ ID NO: 1; SEQ ID NO: 67) were constructed (see Table 7). HEK293 cells were transfected to express either of the protein fragments and then treated with recombinant FAM19A5 protein as described in Example 1. Then, the cell lysates from the different HEK293 cells were immunoprecipitated with the anti-FLAG antibody. The immunoprecipitated proteins were immunoblotted with anti-FLAG and anti-FAM19A5 (3-2) antibodies.

T1 sequence (Q7Z5A7 44-132): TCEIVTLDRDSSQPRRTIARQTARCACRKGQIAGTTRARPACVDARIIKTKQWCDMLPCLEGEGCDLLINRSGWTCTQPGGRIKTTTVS

In the case of GYTYFTTVTVEWYETQPGEEA [FB-21 (W12Y13)], the IC50 ([1]; Table 14, LRRC4B(453-576, TT/TT)-hFc 100 nM coat, peptide 0.03-1000 nM, read-out: IC50 (nM), Inhibition on Complex Formulation between human LRRC4B protein and recombinant FAM19A5 protein (1 ng/mL)) is reported as 4.1 nM, the “increase in ability to dissociate the LRRC4B-FAM19A5 complex compared with wild-type FB-21” value ([1]; from IC50 of Table 14) is reported as 2.9 folds and the IC50 ([2]; Table 15, His-TEV LRRC4B 100 nM coat, peptide 0.3-10000 nM, read-out: IC50 (nM), Inhibition on Complex Formulation between LRRC4B protein and recombinant FAM19A5 protein (1 ng/ml)) is reported as 46.7 nM.

GYTYFTTVTVETLETQ [FB-16] was tested, and the “neurite growth / neurite outgrowth” value [3] was “Increased neurite outgrowth” and the “binding to FAM19A5 protein (ELISA, in words)” value (FAM19A5 protein [4]) was “able to bind to recombinant FAM19A5 protein with high affinity”.

For “nYTYFTTVTVEDYETQPGEEALDEVMKTTKa ([dN]YTYFTTVTVEDYETQPGEEALDEVMKTTK[dA]; also: terminal modifications n and a on first and last residues) [dFB-DY-JM31]”, the “fold more effective in inhibiting complex formation compared to the wild-type FB-21” value ([2]; FIG. 22C, D-form amino acids at both termini) was 4 fold.

With GYTYFTTVTVETLETQPGEKEPPGPTTD [FB-28] the “neurite growth / neurite outgrowth” value [3] was “Increased neurite outgrowth” and the “binding to FAM19A5 protein (ELISA, in words)” value (FAM19A5 protein [4]) was “able to bind to recombinant FAM19A5 protein with high affinity”.

For GYTYFTTVTVEDYETQPGEE [FB-21 (D12Y13)], the “fold more effective in dissociating LRRC4B-FAM19A5 complex formation compared to FB-21” value ([2]; from IC50 of Table 15) was 2.4 fold and the “fold more effective in dissociating LRRC4B-FAM19A5 complex formation compared to FB-21 (W12Y13)” value ([2]; from IC50 of Table 15) was 7 fold.

B1: LRRC4B (36-576): full-length ectodomain of LRRC4B protein, amino acids 36-576 of SEQ ID NO: 2; FLAG-tagged or conjugated to human Fc (protein)
chain: AGGGGVAVTSAAGGGSPPATSCPVACSCSNQASRVICTRRDLAEVPASIPVNTRYLNLQENGIQVIRTDTFKHLRHLEILQLSKNLVRKIEVGAFNGLPSLNTLELFDNRLTTVPTQAFEYLSKLRELWLRNNPIESIPSYAFNRVPSLRRLDLGELKRLEYISEAAFEGLVNLRYLNLGMCNLKDIPNLTALVRLEELELSGNRLDLIRPGSFQGLTSLRKLWLMHAQVATIERNAFDDLKSLEELNLSHNNLMSLPHDLFTPLHRLERVHLNHNPWHCNCDVLWLSWWLKETVPSNTTCCARCHAPAGLKGRYIGELDQSHFTCYAPVIVEPPTDLNVTEGMAAELKCRTGTSMTSVNWLTPNGTLMTHGSYRVRISVLHDGTLNFTNVTVQDTGQYTCMVTNSAGNTTASATLNVSAVDPVAAGGTGSGGGGPGGSGGVGGGSGGYTYFTTVTVETLETQPGEEALQPRGTEKEPPGPTTDGVWGGGRPGDAAGPASSSTTAPAPRSSRPTEKAFTVPITDVTENALKDLDDVMKTTK
modifications: FLAG tag or human Fc
B1 was tested, and the EC50 (FAM19A5 protein [4]; hFc-conjugated ectodomain coated 100 nM/well, FAM19A5 0.005-10 nM, 37° C. 1 hour) was 0.64 nM and the “binding to FAM19A5 protein (co-immunoprecipitation)” value (FAM19A5 protein [5]) was “able to bind to the FAM19A5 protein with varying degree”.
